# Key:
# [1] = test system: adenosine-sensitive receptors of erythrocytes; test: Interaction with adenosine-sensitive receptors of erythrocytes (chemiluminescence of bound compound, adenosine competition); type: binding, mice of line BALB/c; conditions: incubation at 37° C. vs 4° C., 10^−7 to 10^−5 M
# Description: The interaction of compounds 2, 15, 21, 37 according to the invention with adenosine-sensitive receptors of erythrocytes of female mice of line BALB/c of an age of 8-12 months was investigated.
# The dependence of the chemiluminescence intensity of the compounds according to the invention in an alkaline solution of 0.1N NaOH was determined in the presence of hydrogen peroxide being an initiator of chemiluminescence. The chemiluminescence was studied using the <<LKB>> chemiluminometer.
# The erythrocytes of peripheral blood of the mice at first were washed three times by a normal physiological solution with centrifuging and then diluted in the Henks solution without glucose by 10 volumes of distilled water immediately used in the experiment.
# At the first stage of the experiments the washed erythrocytes were incubated at a temperature of 37° C. or at 4° C. with solutions of the compounds according to the invention at a concentration of 10^−7 to 10^−5 M for 5-30 minutes, then washed by a normal physiological solution with repeated centrifuging in the cold. The obtained suspension of erythrocytes with the bound compounds according to the invention was placed in 0.1N solution of NaOH with addition of hydrogen peroxide at a final concentration of 10^−7 M. The chemiluminescence intensity was measured. A suspension of erythrocytes without compounds according to the invention was used as a control medium.
# At the second stage of the experiments the washed erythrocytes were incubated at a temperature of 37° C. with solutions of the compounds according to the invention at a concentration of 10^−11 to 10^−8 M during 5-30 minutes, then washed twice with a normal physiological solution by centrifuging in the cold, the obtained suspension was mixed with an adenosine solution at a concentration of 10^−6 to 10^−4 and incubated for 15 minutes, then washed twice with a normal physiological solution with centrifuging in the cold. The obtained suspension of erythrocytes with the compounds according to the invention was placed in 0.1N solution of NaOH with addition of hydrogen peroxide in the final concentration of 10^−7 M. The chemiluminescence intensity was measured.
# [2] = test system: plasma hemostasis; test: Partial activated thromboplastin time (PATT) after intravenous administration; type: in vivo, rabbit
# Description: The static parameters of the blood and plasma coagulation (partial activated thromboplastin time, thrombin time, maximum coagulation activity (test for auto coagulation) were determined using the Behnk Electronic coagulometer (Germany). The operating principle of this instrument is based on the fact that the formed blood clot breaks the contacts of the pulse counter in the flask-pin circuit, said pin permanently oscillating in a vertical plane. The moment of formation of the clot is registered by stopping the stop watch hand.
# The measurements were effected at a constant temperature of 37° C. maintained by a temperature control unit.
# [3] = Morphine abstinence model: nitrites/nitrates NOX− in blood plasma, liver and brain; type: in vivo, rats Wistar; conditions: 20.0 mg/kg intramuscularly; for Nitrites in liver: control 0.260 ± 0.023; for Nitrites in brain: Cortex of cerebrum: control 4.63 ± 0.29; for Nitrites in brain: Mesencephalon: control 5.66 ± 0.19; for Nitrites in brain: Hypothalamus: control 6.57 ± 0.50; for Nitrites in blood plasma: control 18.30 ± 2.14
# Description: The experiments were carried out on rats in series of 7 animals on each compound according to the invention. Non-morphinized animal with not administered with compounds according to the invention were used as a control group. […] Then the rats were decapitated, the blood from somnolent arteries was collected in test tubes with solution EDTA as an anticoagulant, centrifuged at 1500 g for 15 minutes at 4° C.
# To estimate the intensity of metabolism of nitrogen oxide in rats, quantitative determination of stable metabolites of nitrogen oxide—nitrites and nitrates NOX^− in the blood plasma, supernatanates of the liver and thymus gland, a study was conducted by a spectrometric method, and in the brain supernatanates by a […] method.
# The spectrometric method is based the reaction of nitrites with the Griss reagent (a mixture of 2% solution of sulfanilamide and 0.2% N-(1-naphthyl)ethylene diamine. At the first step the nitrite reacts with sulfanilamide with formation of diazonium salt, and then with the second component to form azo dye with an adsorption maximum at 540 nm. For reduction of nitrates into nitrites, a fermentative method was used with bacterial reductase nitrate (Grisham M. B. et al., 1995). The samples of plasma and supernathant of the liver deproteinizated at 100° C. for 5 minutes incubated for 30 minutes at 37° C. in 50.0 mM of HEPES pH 7.4 in the presence of 0.2 unit/ml of Aspergillus reductase nitrate, 5.0 mkM of FAD and 0.1 mM of NAD-Ph. At the end of the reaction lactate dehydrogenase and pyruvate were added for isolation of NAD-Ph interfering with the Griss reaction. Then the Griss reagent was added and after 10-minute incubation the light absorption of the samples was measured at 540 nm. To amount of NOX^− was calculated using sodium nitrate as a standard.
# The fluorometric method is based on calculation of the nitrite level by the intensity fluorescence of 2,3-diaminonaphthotriazole, a product of reaction of 2,3-diaminonaphthalene (DAN) and nitrite in an acidic medium (Misko T. R., Schilling R. J., Salvemini D. et al. “A fluorometric assay for the measurement of nitrite of biological samples”. Anal. Biochem., 1993, v. 214, p. 11-16). The brain supernatants deproteinizated at 100° C. were placed in a nitrite regenerating system containing 0.125 unit/ml of nitrate reductases, 25 mkM NADPh and 25 mkM FAD prepared in a 20-mM Tris-HCl buffer with pH 7.6 and incubated for 30 minutes at 37° C. The lactate dehydrogenase/pyruvate system was used for oxidation of the NADPh. Then 316 mkM of the DAN solution in 0.62 M of hydrochloric acids were added and the mixture was incubated for 10 minutes in darkness.
# 280 mM of NaOH were added for stabilization of the fluorescence of the formed 2,3-diaminonaphthotriazole. The fluorescence intensity was measured in the spectrofluorimeter Hitachi F-3000 at a wavelength of excitation of 365 nm and an emission of 405 nm. The concentration of NOX^− in the brain was calculated by means of a standard solution of sodium nitrate.
compound,measurement,setting,value
"O=c1[nH][nH]c(=O)c2c(Br)ncnc12.[K] [Compound 37, potassium salt of 4-bromine-pyrimido[4,5-D]-6H-pyridazine-5,8-dione]",dependence of the bond with erythrocytes on temperature,[1],does not depend on the temperature
same,"PATT, T","[2]; 15.0 mg/kg intravenously, after 15 minutes, control 37.0 ± 0.2",37.0 ± 0.2 s
same,"PATT, T","[2]; 15.0 mg/kg intravenously, after 30 minutes, control 37.0 ± 0.2",37.1 ± 0.1 s
same,"PATT, T","[2]; 15.0 mg/kg intravenously, after 60 minutes, control 37.0 ± 0.2",37.0 ± 0.2 s
same,"PATT, T","[2]; 15.0 mg/kg intravenously, after 120 minutes, control 37.0 ± 0.2",36.9 ± 0.1 s
same,"PATT, T","[2]; 30.0 mg/kg intravenously, after 15 minutes, control 33.3 ± 0.8",33.1 ± 0.1 s
same,"PATT, T","[2]; 30.0 mg/kg intravenously, after 30 minutes, control 33.3 ± 0.8",33.3 ± 0.1 s
same,"PATT, T","[2]; 30.0 mg/kg intravenously, after 60 minutes, control 33.3 ± 0.8",33.3 ± 0.2 s
same,"PATT, T","[2]; 30.0 mg/kg intravenously, after 120 minutes, control 33.3 ± 0.8",33.0 ± 0.4 s
same,"PATT, T","[2]; 60.0 mg/kg intravenously, after 15 minutes, control 32.5 ± 0.3",32.5 ± 0.1 s
same,"PATT, T","[2]; 60.0 mg/kg intravenously, after 30 minutes, control 32.5 ± 0.3",32.3 ± 0.2 s
same,"PATT, T","[2]; 60.0 mg/kg intravenously, after 60 minutes, control 32.5 ± 0.3",32.4 ± 0.1 s
same,"PATT, T","[2]; 60.0 mg/kg intravenously, after 120 minutes, control 32.5 ± 0.3",32.6 ± 0.3 s
same,effect on the PATT,"[2]; doses 15.0, 30.0, 60.0 mg/kg",do not affect the PATT
same,Nitrites in liver,[3]; Control + Compound,0.262 ± 0.018 nmol/mg of protein
same,Nitrites in brain: Cortex of cerebrum,[3]; Control + Compound,4.36 ± 0.24 nmol/mg of protein
same,Nitrites in brain: Mesencephalon,[3]; Control + Compound,6.84 ± 0.56 nmol/mg of protein
same,Nitrites in brain: Hypothalamus,[3]; Control + Compound,6.79 ± 0.92 nmol/mg of protein
same,Nitrites in blood plasma,[3]; Control + Compound,16.13 ± 1.80 mkmol/ml
same,Nitrites in liver,[3]; Control + Morphine + compound,0.274 ± 0.01 nmol/mg of protein
same,Nitrites in brain: Cortex of cerebrum,[3]; Control + Morphine + compound,4.77 ± 0.28 nmol/mg of protein
same,Nitrites in brain: Mesencephalon,[3]; Control + Morphine + compound,5.63 ± 0.37 nmol/mg of protein
same,Nitrites in brain: Hypothalamus,[3]; Control + Morphine + compound,6.52 ± 0.83 nmol/mg of protein
same,Nitrites in blood plasma,[3]; Control + Morphine + compound,15.33 ± 0.87 mkmol/ml
